We go through two compounds from patent US6413537B1, “Nystatin formulation having reduced toxicity” (Wisconsin Alumni Research Foundation, priority 2000, dated 2002).

Data set [1] can be described thus: Critical aggregation concentration (CAC) of nystatin by light scattering. In kind it is physicochemical. How it is done:
Nystatin (16 mg) was dissolved into 0.3 mL of dimethylsulfoxide (DMSO) under light protection, and was added into 15 mL of various aqueous Pluronic F127® solutions ranging from 0.1%-2.0%, making a 1100 μM nystatin solution. Each solution was serially diluted with the corresponding Pluronic F127® solution until a 3.8 μM nystatin concentration was obtained. After incubation at 37° C. for 30 min, each solution was subjected to light scattering using fluorimeter with fixed excitation wavelength of 450 nm. Band widths for excitation and emission were set at 3 nm and 1.5 nm, respectively. […] The intersection point of two linear lines was defined as the critical aggregation concentration (CAC) where self-aggregation of nystatin molecules begins, leading to an abrupt increase of intensity of scattered light.

Data set [2] in a line: Solubility measurement of freeze-dried nystatin formulations (NF) in distilled water. In kind it is physicochemical. To be noted: vortex mixed 5 min, 0.45 μm filtered, absorption at 307 nm. How it is done: An excess amount of each NF formulation from Example 1 was placed into 0.5 mL of distilled water, and mixed vigorously for 5 min with a vortex mixer. After filtering the slurry with a 0.45 μm syringe filter, the filtrate was diluted with dimethylformamide (DMF) for analysis. The amount of nystatin in each NF composition was calculated by absorption spectroscopy at 307 nm.

For another data set, the system named is Saccharomyces cerevisiae. Put plainly: Minimal fungicidal concentration (MFC). The data set is classed as cell-based. To be noted: 2 hrs contact at 37° C., no colony on YPD agar plate after 24 hr at 30° C. How it is done:
For measurement of minimal fungicidal concentration (MFC), the same procedure as the MIC measurement was employed up to the incubation step. Tubes containing Saccharomyces cerevisiae were placed in an incubator at 37° C. for 2 hrs., so that the cells might be killed. After 2 hrs. contact with the sample, the surviving cells were precipitated on the bottom of the tube by centrifugation (12000 g, 20 sec), and the supernatant decanted. […] All experiments were repeated three times. The MFC for the compositions in accordance with the present invention was determined to be 3 μg/mL.

Data set [3] deals with erythrocytes (red blood cells).
Data set [4] concerns Saccharomyces cerevisiae, ATCC 4921. Nature of the data set: Minimal inhibitory concentration (MIC) in YPD broth. In kind it is cell-based. Particulars: 30° C., 24 hr, full inhibition by optical density at 600 nm. As for the experimental part: NF samples were dissolved into DMSO and diluted with Bacto® YPD broth medium (10 g of Bacto® YPD in 200 mL of distilled water, and sterilized at 121° C.-124° C.), to give a nystatin level of 8 μg/mL. Nystatin levels were varied by serial dilution with broth medium to a level of 0.1 μg/mL. An aliquot (800 μL) of each nystatin sample was put into a microcentrifuge tube. 50 μL of the inoculum, containing 5×10^3 cfu/mL of Saccharomyces cerevisiae, ATCC 4921, in sterile distilled water, was added to each tube to give a total volume of 850 μL per tube. The tubes were incubated at 30° C. for 24 hr. A solvent control, Pluronic F127® control, and medium control were performed simultaneously to check the growth inhibiting activities of DMSO and Pluronic F127® as well as the sterility of the broth medium. […] The MIC for the nystatin formulations in accordance with the present invention was determined to be 3 μg/mL. The MIC of nystatin alone for Saccharomyces cerevisiae is about 3 μg/mL.

Data set [5] can be described thus: Monomerizing (light scattering) effect of various surfactants on nystatin. The data set is classed as physicochemical. Particulars: nystatin kept constant at 200 μM; FIG. 7. As for the experimental part: Nystatin formulations were prepared with various surfactants similar to the method of Example 1. The concentration of drug was kept constant at 200 μM. The intensity of the scattered light was measured using a fluorimeter with a fixed excitation wavelength of […].

What is called Solubility is how much of the substance goes into solution per volume. A high value points to a readily soluble substance.

Values after ≈ are worked out from the molar mass of the structure shown. Where two headings read alike, the source gives them in different places.

As to `C[C@@H]1[C@H](O)[C@@H](C)/C=C/C=C/CC/C=C/C=C/C=C/C=C/C(O[C@H]2O[C@H](C)[C@@H](O)[C@H](N)[C@@H]2O)CC2O[C@](O)(CC(O)C(O)CCC(O)CC(O)CC(O)CC(=O)O[C@H]1C)CC(O)C2C(=O)O` (stereo partly shown) [pure Nys, Nystatin], the CAC in data set [1] (distilled water alone) came to 52.8 µM; in data set [1] (distilled water containing 0.1% Pluronic F127, 37° C. 30 min) it was 50.1 µM; in data set [1] (distilled water containing 0.5% Pluronic F127, 37° C. 30 min) it was 108.0 µM; in data set [1] (distilled water containing 1.0% Pluronic F127, 37° C. 30 min), 134.2 µM; in data set [1] (distilled water containing 1.5% Pluronic F127, 37° C. 30 min), 154.3 µM; in data set [1] (distilled water containing 2.0% Pluronic F127, 37° C. 30 min), 217.9 µM. In addition, the Solubility in data set [2] is 540 µg/mL (≈ 583 µM); in data set [2] (listed as pure nystatin), 500 µg/mL (≈ 540 µM). Also, the “minimal fungicidal concentration (MFC)” value in the data set on Saccharomyces cerevisiae stood at 12 µg/mL (≈ 13 µM). The “concentration of nystatin causing 50% hemolysis” value in data set [3] (PBS pH 7.0 containing 0.1% Pluronic F127, FIG. 4) was roughly 120 µg/mL; in data set [3] (PBS pH 7.0 containing 2% Pluronic F127, FIG. 4) it was roughly 270 µg/mL; in data set [3] (isotonic PBS, FIG. 3) it was “about 55 μg/mL”. The “50% hemolysis inducing level of Nys” value in data set [3] (Table 1, erythrocytes in isotonic PBS, 37° C., 30 min) worked out at 60 µg/mL. Moreover, in data set [4], the “minimal inhibitory concentration (MIC)” value is “about 3 μg/mL”.

“sorbitan mono-9-octadecanoate [Tween 80®]”: the “concentration of surfactant alone causing 50% hemolysis” value in data set [3] is “less than 50 μg/mL”. Further, the “surfactant level showing deaggregating activity (decrease of light scattering intensity)” value in data set [5] is recorded as “about 100 μM”.
